# Measurements: US10413532B2, “Pharmaceutical compositions containing a PDE4 inhibitor and a PI3 delta or dual PI3 delta-gamma kinase inhibitor” (Rhizen Pharmaceuticals SA, priority 2012, dated 2019)
# Assays:
# MMP-9 = MMP-9 release from PMA-induced THP-1 cells (gelatin zymography); assay type: cell-based, human; conditions: Homo sapiens; compound alone; THP-1 cells, PMA; read-out: IC50 for the reduction of MMP-9
# Procedure: Gelatinase activity of MMP-9 was determined by zymography. Proteins in supernatant (after incubation of THP-1 cells with 50 ng PMA for 24 h) were separated on gels containing 0.1% gelatin (Sigma, USA). Gels were re-natured by incubation in 2.5% Triton X-100 for 30 min, incubated overnight in substrate buffer (50 mMTris-HCl, pH 7.5) containing 10 mM CaCl2 and 0.05% ZnCl2 at 37° C. and stained with Coomassie brilliant blue (0.5%). […] Molecular weight markers (Fermentas, Lithuania) were run with each gel. Band intensity was calculated using ImageJ 1.42 (NIH, USA).
# elastase = experiment: fMLP induced elastase release from human neutrophils; assay type: cell-based; conditions: Neutrophil, compound alone
# Procedure: Blood was procured from a local blood bank. Neutrophils were obtained using the dextran sedimentation method. Cells were plated at 100,000 cells per well in a 96-well plate, treated with fMLP (1 μM) and N-Succinyl-Ala-Ala-Ala-p-nitroanalide (1 μM) (Sigma) and incubated for 2 h. Intensity of digested substrate after incubation was determined by measuring the absorbance at 405 nm on a Fluostar Omega (BMG Labtech, NC, USA).
# neutrophil infiltration = experiment: Lipopolysaccharide induced pulmonary neutrophilia in female Wistar rats; assay type: in vivo
# Procedure: After the quarantine period, fasted animals were randomized and divided into groups depending on their body weights. Test compound was prepared as a suspension in a vehicle consisting of 0.5% methylcellulose in which Tween 80 was used as a suspending agent. Compounds or vehicle were administered by oral gavage in a volume of 10 mL/kg. Animals were anaesthetized with ketamine and LPS solution was administered intratracheally 30 minutes after compound administration at a dose of 1 mg/kg. Six hours after LPS instillation, animals were exsanguinated under anaesthesia, and the trachea was cannulated, and lungs were lavaged with 5-ml aliquots of heparinised PBS (1 unit/ml) four times through the tracheal cannula (total volume 20 ml). Bronchioalveolar (BAL) fluid was stored at 2-8° C. until assayed for total cell and differential leukocyte count. BAL fluid was centrifuged (500×g for 10 min) and the resulting cell pellet was resuspended in 0.5 ml of heparinised saline. The total numbers of white blood cells were determined in BAL fluid or blood using a cell counter and were adjusted to 1×10^6 cell/ml. Differential cell count was calculated manually. One hundred microliters of the cell suspension was centrifuged using cytospin 3 to prepare a cell smear. The cell smear was stained with a blood staining solution for differentiation and slides were microscopically observed to identify eosinophils according to their morphological characteristics. The number of each cell type among 300 white blood cells in the cell smear was determined and expressed as a percentage of total cells. The number of eosinophil in BALF was calculated.
# The procedure for LPS induced pulmonary neutrophilia in female Wistar rats as described in Example 1 was performed with compound A1 and roflumilast.
# [1] = tested on: macrophage and neutrophil infiltration; experiment: Acute cigarette smoke induced cell infiltration in male Balb/c mice; assay type: in vivo; conditions: acute CS, mouse
# Procedure: Animals were acclimatized for seven days prior to the start of the experiment. Animals were randomly distributed to various groups based on their body weights. On day 1, mice were administered by test compound or vehicle by the oral route and after 30 mins test compound administration animals were placed in a whole body exposure box. The mice were exposed to the mainstream smoke of 6 cigarettes from day 1 to day 4. Exposure to the smoke of each cigarette lasted for 10 min (cigarettes were completely burned in the first two minutes and followed by an air flow with animal ventilator) followed by exposure for the next 20 min with fresh room air. After every second cigarette an additional break of 20 min with exposure to fresh room air was conducted. Control animals were exposed to the room air chamber. From day 1 to day 4 animals were administered test compound by the oral route. On day 5, 24 hours after the last cigarette smoke (CS) exposure. animals were exsanguinated under anaesthesia, and the trachea was cannulated and the lungs were lavaged with 0.5 ml aliquots of heparinised PBS (1 unit/ml) four times through a tracheal cannula (total volume 2 ml). Bronchioalveolar (BAL) collected was stored at 2-8° C. until assayed for total cell and differential leukocyte count. BAL fluid was centrifuged (500×g for 10 min) and the resulting cell pellet was resuspended in 0.5 ml of heparinised saline. The total number of white blood cells was determined in BAL fluid and blood using a blood cell counter and adjusted to 1×10^6 cell/ml. Differential cell count was calculated manually. Forty microliters of the cell suspension was centrifuged using cytospin 3 to prepare a cell smear. The cell smear was stained with a blood staining solution for differentiation and microscopically observed by identifying each cell according to its morphological characteristics. The number of each cell type among 300 white blood cells in the cell smear were determined and expressed as a percentage, and the number of neutrophils and macrophages in each BAL fluid were calculated.
# The procedure for acute cigarette smoke induced cell infiltration in male Balb/c mice described in Example 1 was performed with Compound A1 and roflumilast
# [2] = tested on: macrophage and neutrophil infiltration; experiment: Chronic cigarette smoke induced cell infiltration in male Balb/c mice; assay type: in vivo; conditions: alone at 1 mg/kg oral; chronic CS, mouse
# Procedure: Animals were acclimatized for seven days prior to the start of the experiment. Animals were randomly distributed to various groups based on their body weights. Mice were exposed to the mainstream smoke of 4 cigarettes from day 1 to day 11. Exposure to the smoke of each cigarette lasted for […] (each cigarette was completely burned in the first two minutes, followed by an air flow with animal ventilator) and were exposed for the next 20 min with fresh room air. After every second cigarette an additional break of 20 min with exposure to fresh room air was conducted. Control animals were exposed to the room air chamber. Test compound was administered by the oral route from day 6 to day 11 before 30 mins whole body smoke exposure. On day 12, 24 hours after the last cigarette smoke (CS) exposure animals were exsanguinated under anaesthesia, and the trachea was cannulated and the lungs were lavaged with 0.5 ml aliquots of heparinised PBS (1 unit/nil) four times through tracheal cannula (total volume 2 ml). Bronchioalveolar (BAL) collected was stored at 2-8° C. until assayed for total cell and differential leukocyte count. BAL fluid was centrifuged (500×g for 10 min) and the resulting cell pellet was resuspended in 0.5 ml of heparinised saline. The total number of white blood cells was determined in BAL fluid and blood using a blood cell counter and adjusted to 1×10^6 cell/ml. Differential cell count was calculated manually Forty microliters of the cell suspension was centrifuged using cytospin 3 to prepare a cell smear. The cell smear was stained with a blood staining solution for differentiation and microscopically observed by identifying each cell according to its morphological characteristics. The number of each cell type among 300 white blood cells in the cell smear was determined and expressed as a percentage, and the number of neutrophils and macrophages in each BAL fluid were calculated.
# [3] = 3 mg/kg oral, dose-response study
# [4] = combination study, alone at 3.5 mg/kg
smiles,measurement,setting,value
"O=C(Nc1c(Cl)cncc1Cl)c1ccc(OC(F)F)c(OCC2CC2)c1 [Compound A, roflumilast, reference compound]",IC50,MMP-9,577 nM
same,Emax,"elastase; Homo sapiens, read-out: Emax of inhibition of elastase release",43%
same,IC50,"elastase; human neutrophils, read-out: IC50 of inhibition of fMLP induced elastase release",10.2 nM
same,percent inhibition of neutrophil infiltration,"neutrophil infiltration; 0.3 mg/kg oral, rat BAL fluid 6 h after LPS",−7.89%
same,percent inhibition of neutrophil infiltration,"neutrophil infiltration; 1 mg/kg oral, dose-response study, rat",43.46%
same,percent inhibition of neutrophil infiltration,"neutrophil infiltration; 3 mg/kg oral, rat",68.02%
same,percent inhibition of neutrophil infiltration,"neutrophil infiltration; 10 mg/kg oral, rat",92.21%
same,ED50,"neutrophil infiltration; Neutrophil, oral, rat LPS pulmonary neutrophilia, read-out: 50% inhibition (ED50) dose, neutrophil infiltration",1.8 mg/kg
same,inhibition of neutrophil infiltration,"neutrophil infiltration; combination study, alone at 1.8 mg/kg, rat",36.18%
same,percent inhibition of macrophage infiltration,[1]; 1 mg/kg oral,22.2%
same,percent inhibition of neutrophil infiltration,[1]; 1 mg/kg oral,70.85%
same,percent inhibition of macrophage infiltration,[1]; [3],51.00%
same,percent inhibition of neutrophil infiltration,[1]; [3],73.69%
same,percent inhibition of macrophage infiltration,[1]; 10 mg/kg oral,69.11%
same,percent inhibition of neutrophil infiltration,[1]; 10 mg/kg oral,83.01%
same,ED50,"[1]; Macrophage, oral, read-out: 50% inhibition (ED50) dose, macrophage infiltration",3.5 mg/kg
same,inhibition of macrophage infiltration,[1]; [4],26.55%
same,inhibition of neutrophil infiltration,[1]; [4],44.42%
same,inhibition of macrophage infiltration,[2],6.30%
same,inhibition of neutrophil infiltration,[2],34.60%
